{
  "source": "patent US20050180940A1",
  "about": "“Protect against hair loss” (priority 2004, published 2005)",
  "origin": "cited, not measured here",
  "tested_on": "common male-pattern baldness",
  "conditions": "two daily topical applications, person, after 3-4 weeks",
  "data": [
    {"substance": "sucralfate", "values": [
      {"measurement": "Effect on common male-pattern baldness (hair appearance)", "result": "appearance of hair in the otherwise bald lateral-frontal areas in the scalp"}
    ]}
  ]
}
